Holding throughout (assay type): cell-based
Assay [1] relates to Tre genetic element (rtTA). As to the kind of experiment: Example 2 multiplex circuit: small molecule effector (dox) transfer curve, input reporter EYFP. Conditions: Example 2, FIG. 10, normalized input reporter EYFP. The text has this:
The multiplex circuit to be characterized is shown in FIG. 9. he regulatory protein transcription unit and the input reporter protein transcription unit, which are co-expressed in this example, are under the control of the small molecule effector doxycycline (dox), which binds to the constitutively expressed protein rtTA to regulate transcription from the Tre genetic element. In this example, the effector transcription unit comprises a constitutive effector genetic element (CAG) and a coding sequence for an effector-regulated protein (rtTA), wherein the constitutive effector genetic element (CAG) controls expression of the effector-controlled protein (rtTA). In this example, the effector transcription unit further comprises coding sequence for the VP16-GAL4 activator which binds UAS-T1 in the output transcription unit. In the absence of dox, Tal1 is not expressed and the constitutively expressed VP16-GAL4 activator binds to UAS-T1, leading to expression of the mKate output reporter. The effector transcription unit contains a coding sequence for a 2A self-cleaving peptide allowing for expression of rtTA and VP16-GAL4 from the same construct. The test regulatory protein transcription unit and the input transcription unit are co-expressed from a genetic element responsive to a small molecule effector (Tre). […] The input reporter protein EYFP has a yellow fluorescence emission. […]

Assay [2] deals with Tre genetic element (rtTA). As to the kind of experiment: Example 1 multiplex circuit: small molecule effector (dox) transfer curve, input reporter EBFP2 by FACS. The following applies: Example 1, FIG. 7, normalized input reporter EBFP2, HEK 293 FT. The text has this: Both the regulatory protein transcription unit and the input reporter protein transcription unit are under the control of the small molecule effector doxycycline (dox). In this example, the activity of the small molecule effector (dox) is mediated through an effector transcription unit. The effector transcription unit comprises a constitutive effector genetic element (pHef1a) and a coding sequence for an effector-regulated protein (rtTA), wherein the constitutive effector genetic element (pHef1a) controls expression of the effector-controlled protein (rtTA). […]
The input transcription unit comprises a genetic element responsive to a small molecule effector (Tre) and a coding sequence for the input reporter protein (EBFP2), wherein the genetic element responsive to the effector-regulated protein (Tre) controls expression of the input reporter protein (EBPF2). […] The input reporter protein EBFP2 has a blue fluorescence emission. […]
(§1) The cells are then subjected to FACS analysis and the amounts of input, output and constitutive protein fluorescence is measured for each cell. […]
(§2) While the colors for the input, output and constitutive protein fluorescence are selected to have as little overlap as possible, there is some inherent overlap between the different colors. […]
In general terms: In flow cytometry, cells or beads pass a laser one at a time.

In a further assay the test system is Hef1a-LacO1Oid. The assay is described as follows: Example 1 multiplex circuit: regulatory protein (LacI) transfer curve, output reporter EYFP by FACS. Conditions: Example 1, FIG. 8, normalized output reporter EYFP.
From the text: The regulatory protein transcription unit comprises a genetic element responsive to a small molecule effector (Tre) and a coding sequence for the regulatory protein (LacI), wherein the genetic element responsive to the genetic element responsive to the effector-regulated protein (Tre) controls expression of the regulatory protein (LacI). In the present case, the genetic element responsive to the effector-regulated protein (Tre) is responsive to the effector-controlled protein (rtTA).
The output transcription unit comprising a genetic element responsive to the regulatory protein (Hef1a-LacO1Oid) and a coding sequence for the output reporter protein (EYFP), wherein the genetic element responsive to the regulatory protein (Hef1a-LacO1Oid) controls expression of the output reporter protein (EYFP). The output reporter protein EYFP has a yellow fluorescence emission. […]
as §1, §2

The text below walks through data of patent US8809057B2, “Methods of evaluating gene expression levels” (Raytheon BBN Technologies Corp., priority 2012, dated 2014).

With `C[C@H]1c2cccc(O)c2C(=O)C2=C(O)[C@]3(O)C(=O)C(C(N)=O)=C(O)[C@@H](N(C)C)[C@@H]3[C@@H](O)[C@@H]21` [dox, doxycycline], in assay [1], the “dox level at which the level of IFP saturates at a high value” is recorded as “more than 200 nM” and the “dox level at which the level of IFP stays low regardless of the plasmid count” value is “less than or equal to 3 nM”. For the same molecule, in assay [2], the “dox level at which the level of IFP saturates at a high value” was “more than 200 nM” and the “dox level at which the level of IFP stays low regardless of the plasmid count” value is given as “less than or equal to 3 nM”.

B1: LacI: test regulatory protein (Lac repressor) binding Hef1a-LacO1Oid (protein, UniProt P03023 1-360, looked up)
Lactose operon repressor: MKPVTLYDVAEYAGVSYQTVSRVVNQASHVSAKTREKVEAAMAELNYIPNRVAQQLAGKQSLLIGVATSSLALHAPSQIVAAIKSRADQLGASVVVSMVERSGVEACKAAVHNLLAQRVSGLIINYPLDDQDAIAVEAACTNVPALFLDVSDQTPINSIIFSHEDGTRLGVEHLVALGHQQIALLAGPLSSVSARLRLAGWHKYLTRNQIQPIAEREGDWSAMSGFQQTMQMLNEGIVPTAMLVANDQMALGAMRAITESGLRVGADISVVGYDDTEDSSCYIPPLTTIKQDFRLLGQTSVDRLLQLSQGQAVKGNQLLPVSLVKRKTTLAPNTQTASPRALADSLMQLARQVSRLESGQ
On to B1, for which the “repression of the output of Hef1a-LacO1Oid” value with Hef1a-LacO1Oid was found to be 100 fold.
